The text below walks through data of publication PMC5614581, “Investigating cyclic nucleotide and cyclic dinucleotide binding to HCN channels by surface plasmon resonance” (PLoS ONE, 2017).

Positions count from the first letter of the chain named. “Also recorded” adds a separate entry of the source. Like-named read-outs stand apart in the source and are kept apart here. Where only a bound is given, the exact number is not on record here.

In assay [1] the target is C-linker/CNBDs of HCN4 channels. Conditions: read-out: binding affinity (FA), cited from earlier work.
Assay [2] has as its target isolated C-linker/CNBDs of HCN2 channels. As to conditions: read-out: binding affinity (FA); cited from earlier work.
Assay [3] has as its target T1, C-linker/CNBD of human HCN4 (hHCN4, residues 521–723) (Homo sapiens, UniProt Q9Y3Q4).
T1 sequence (Q9Y3Q4 521-723): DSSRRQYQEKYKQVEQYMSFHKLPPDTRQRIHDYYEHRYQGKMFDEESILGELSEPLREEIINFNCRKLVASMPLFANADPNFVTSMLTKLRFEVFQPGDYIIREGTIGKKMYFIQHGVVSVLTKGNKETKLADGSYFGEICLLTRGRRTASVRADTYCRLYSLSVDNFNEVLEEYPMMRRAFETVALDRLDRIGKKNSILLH
As to the kind of experiment: SPR, immobilized hHCN4 C-linker/CNBD on NTA chip. As to conditions: for SPR binding response: analyte alone (no added cAMP), 300 μM or range up to 300 μM; for SPR binding response in the presence of cAMP: in the presence of 100 μM cAMP, analyte 300 μM or range up to 300 μM. (In general: In SPR one partner is held on a chip, and binding of the other changes the refractive index at the surface.)
Experimental: (§1) SPR experiments were performed at 25 °C on a Biacore 4000 Instrument (GE Healthcare). C-linker/CNBDs of wild-type and L586W mutant mHCN2, and hHCN4 channels were immobilized on a NTA chip (GE Healthcare), as previously described [31, 32]. Immobilizations of the proteins were performed in HBS-P buffer (150 mM NaCl, 10 mM HEPES, 0.05% (v/v) surfactant P20, pH 7.4). First the NTA sensor surface was activated with a 1 min injection of 0.5 M NiCl2. The coupling of the Ni^2+-NTA chip surface groups with the 6-His-tagged proteins was then achieved by 2.5 min injections of the proteins at 200 nM concentrations to the chip surface. After the initial capturing, the proteins were covalently cross-linked via 20 s injections of NHS-EDC carboxyl-reactive cross-linkers to prevent protein loss from the chip surface with successive analyte and buffer injections. This was followed by 20 s injection of 1 M ethanolamine to block the remaining reactive sites. The proteins were captured at ~1000–3000 resonance units (RU; 1 RU = 1 pg of protein per mm^2). […] This spot was used as a reference surface to account for a non-specific binding to the chip surface. The binding to the reference surface was subtracted from the binding to the surfaces with immobilized proteins. In addition, the binding corresponding to blank injections (buffer only) was subtracted from the reference subtracted SPR data.
(§2) The binding experiments were performed in the running buffer (150 mM KCl, 10% Glycerol, 1 mM TCEP, 30 mM HEPES, pH 7.5). Analytes over the range of concentrations were injected in triplicates over the chip surface for 60 s at a flow rate of 30 μl /min, followed by buffer only injections. The regeneration of the surface between the analyte injections was not necessary, as the baseline returned to the pre-injection levels. In some experiments we observed a drift in the baseline. […] However, there was minimal residual binding between analyte injections, as indicated by essentially the same binding response for triplicate repeats of analyte injections at the same concentrations.
(§3) Each experiment was repeated on at least three different NTA chips.
(§4) Therefore, concentrations higher than 300 μM were excluded from the analysis. The data analysis and fitting of the plots was performed in Origin (Microcal Software, Inc). Error bars indicate the SEM. […] For each NTA chip an analyte was injected three times. Therefore, each experiment was repeated at least 3xn times. Statistical analysis was performed by using one-way ANOVA. P < 0.05 was considered statistically significant.

The target of assay [4] is T2, C-linker/CNBD of mouse HCN2 (mHCN2, residues 443–645) (Mus musculus, UniProt O88703).
T2 sequence (O88703 443-645): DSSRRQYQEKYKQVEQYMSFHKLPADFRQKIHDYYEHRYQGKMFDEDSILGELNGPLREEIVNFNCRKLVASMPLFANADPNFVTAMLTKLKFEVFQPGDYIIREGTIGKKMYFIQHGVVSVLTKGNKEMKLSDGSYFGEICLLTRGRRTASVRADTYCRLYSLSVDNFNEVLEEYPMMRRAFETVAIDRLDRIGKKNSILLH
As to the kind of experiment: SPR, immobilized mHCN2 C-linker/CNBD on NTA chip. As to conditions: for Kd: SPR.
Experimental: as §1, §2, §3, §4

In assay [5] the test system is full-length hHCN4 channels. As to conditions: cited from earlier work; for effect on cyclic nucleotide modulation of the channel: in the presence of cyclic nucleotides.
The target of assay [6] is T3, hHCN4 C-linker/CNBD (tetrameric) (Homo sapiens, UniProt Q9Y3Q4).
T3 construct: C-linker/CNBD of hHCN4 (residues 521–723); made in house; host or cells: E. coli BL21 (DE3)
T3 sequence (Q9Y3Q4 521-723): T1 sequence (Q9Y3Q4 521-723)
As to the kind of experiment: ITC, 80 μM (tetrameric) hHCN4 C-linker/CNBD after MBP tag cleavage. As to conditions: 80 μM C-linker/CNBD. Format: binding. A general note: In ITC the heat of successive injections is recorded.
Experimental: (§5) For ITC experiments at low concentrations of the hHCN4 C-linker/CNBD the protein was concentrated to 6 μM and dialyzed in 150 mM KCl, 1 mM TCEP, 30 mM HEPES, pH 7.5 overnight at 4°C using a Slide-A-Lyzer dialysis cassette (ThermoFisher Scientific). For ITC experiments at high concentrations of the hHCN4 C-linker/CNBD the protein was concentrated to 80 μM and dialyzed in 100 mM KCl, 1 mM TCEP, 20 mM HEPES, pH 7.0 overnight at 4°C using a Slide-A-Lyzer cassette. The protein solutions were degassed prior to each experiment. ITC titrations were performed at 25°C using the ITC200 calorimeter (Malvern Instruments Inc. Westborough, MA). […] Data analysis was performed with NITPIC and SEDFAT [34, 35] using a single-site binding model for 6 μM C-linker/CNBDs and a two independent binding site model for 80 μM C-linker/CNBDs, as used by Chow et al. [36].

The target in assay [7] is T4, hHCN4 C-linker/CNBD (monomeric) (Homo sapiens, UniProt Q9Y3Q4).
T4 construct: human HCN4 (hHCN4, residues 521–723); made in house; host or cells: E. coli BL21 (DE3)
T4 sequence (Q9Y3Q4 521-723): T1 sequence (Q9Y3Q4 521-723)
As to the kind of experiment: ITC, 6 μM (monomeric) 6-His tagged hHCN4 C-linker/CNBD. Format: binding. As to conditions: 6 μM C-linker/CNBD.
Experimental: as §5

Assay [8] deals with full-length HCN2 channels. Conditions: read-out: affinity for full-length HCN2 channels, electrophysiology; cited from earlier work.
Assay [9] deals with mHCN2-L586W C-linker/CNBDs. Conditions: read-out: binding affinity (tryptophan fluorescence); cited from earlier work.
For assay [10], the target named is T5, mHCN2-L586W C-linker/CNBD (Mus musculus, UniProt O88703, L586W).
T5 construct: mouse HCN2 (mHCN2, residues 443–645); made in house; host or cells: E. coli BL21 (DE3)
T5 sequence (O88703 443-645 L586W): T2 sequence (O88703 443-645) with L144W
As to the kind of experiment: SPR, immobilized mHCN2-L586W C-linker/CNBD on NTA chip. Format: binding. As for the experimental part:
Error bars indicate the SEM. […] Statistical analysis was performed by using one-way ANOVA. P < 0.05 was considered statistically significant.

In assay [11] the target is isolated C-linker/CNBDs of HCN2 channels. As to conditions: cGMP; read-out: binding affinity (ITC); cited from earlier work.
For assay [12] the target is unchanged. Conditions: read-out: binding affinity (SPR, ligand coupled to CM5 chip); cited from earlier work.
Assay [13] addresses isolated C-linker/CNBDs of HCN4 channels. As to conditions: read-out: binding affinity (SPR, ligand coupled to CM5 sensor); cited from earlier work.
[14] abbreviates: analyte alone (no added cAMP), 300 μM.
Where [15] appears, read: in the presence of 100 μM cAMP, analyte 300 μM.

Regarding `Nc1ncnc2c1nc(SCCNC(=S)Nc1ccc(-c3c4ccc(=O)cc-4oc4cc(O)ccc34)c(C(=O)O)c1)n2C1OC2COP(=O)(O)OC2C1O` (stereo not drawn) [8-Fluo-cAMP], the Kd in [1] (8-Fluo-cAMP) was 0.18 to 0.28 µM; in [2], 0.3 to 0.7 µM.

As to `Nc1ncnc2c1ncn2[C@@H]1O[C@@H]2COP(=O)(O)O[C@H]3[C@@H](O)[C@H](n4cnc5c(N)ncnc54)O[C@@H]3COP(=O)(O)O[C@H]2[C@H]1O` [c-di-AMP], the SPR binding response entry in assay [3] was “No increase in the binding response; also recorded: did not show any cyclic dinucleotide binding”; in [3] (listed as c-diAMP), “did not detect any binding”; in assay [4] (setting [14]) it was “No increase in the binding response”; in [4] (analyte alone (no added cAMP), 300 μM, listed as c-diAMP) it was “did not detect any binding”. Also, the “SPR binding response in the presence of cAMP” value (“SPR binding response … of cAMP” below) in assay [3] was “No increase in the binding response; also recorded: did not show any cyclic dinucleotide binding”; in assay [3] (listed as c-diAMP), “did not detect any binding”; in [4] (setting [15]), “No increase in the binding response”; in assay [4] (in the presence of 100 μM cAMP, analyte 300 μM, listed as c-diAMP), “did not detect any binding”. The “effect on cyclic nucleotide modulation of the channel” value (from here on “effect … of the channel”) in [5] was “antagonized the effect of cyclic nucleotides”.

As to `Nc1nc2c(ncn2[C@@H]2O[C@@H]3COP(=O)(O)O[C@H]4[C@@H](O)[C@H](n5cnc6c(=O)[nH]c(N)nc65)O[C@@H]4COP(=O)(O)O[C@H]3[C@H]2O)c(=O)[nH]1` [c-di-GMP], the “binding (ITC)” value is “no binding” in assay [6] (absence of cAMP) and “no binding” in assay [7] (absence of cAMP, titrated with 300 μM ligand). Also, the “binding (ITC) in the presence of cAMP” value in assay [6] (presence of 1 mM cAMP) was “no binding”; in [7] (presence of 100 μM cAMP in ligand and protein solutions), “no binding”. Also, the SPR binding response entry in assay [3] is “No increase in the binding response; also recorded: did not show any cyclic dinucleotide binding”; in assay [3] (listed as c-diGMP) it was “did not detect any binding”; in assay [4] (setting [14]), “did not detect any binding”. Moreover, the results for the “SPR binding response … of cAMP” value in assay [3], in [3] (listed as c-diGMP) and in assay [4] (setting [15]) were “No increase in the binding response; also recorded: did not show any cyclic dinucleotide binding”, “did not detect any binding” and “did not detect any binding”, respectively. In [5] (100 μM c-di-GMP, 15 μM cAMP), the “effect on the cAMP-induced V1/2 shift” value was “completely abolishing the effect of 15 μM cAMP”. Moreover, in assay [5] (in the presence of 15 μM cAMP, read-out: apparent affinity for decreasing the cAMP-induced positive shift in V1/2), the IC50 is 1.8 µM. Further, the “effect … of the channel” value in [5] is reported as “antagonized the effect of cyclic nucleotides”.

Regarding `Nc1nc2c(ncn2[C@@H]2O[C@@H]3COP(=O)(O)O[C@H]3[C@H]2O)c(=O)[nH]1` [cGMP], the EC50 is about 6 µM in [8] and 13.2 µM in assay [5] (cGMP, read-out: affinity for full-length hHCN4 channels, electrophysiology). Further, the Kd in [9] was 62 ± 23 µM; in [10] (averaged over different NTA chips, for cGMP only a limit could be estimated, read-out: Kd (averaged binding affinity)), over 73.9 µM; in [10] (single surface, Fig 2D, read-out: binding affinity (fit of representative dose response plot)) it was at least 70.1 µM; in [11], 8.5 µM; in [3] (read-out: Kd (averaged binding affinity), SPR, averaged over different NTA chips), 5.5 ± 0.9 µM; in assay [3] (read-out: binding affinity (fit of representative dose response plot), SPR, single surface, Fig 3C), 5.6 ± 0.2 µM. Also, the Kd in assay [4] (read-out: Kd (averaged binding affinity), averaged over different NTA chips, 25 °C, Hill fit) came to 13.4 ± 2 µM; in assay [4] (read-out: binding affinity (fit of representative dose response plot), single surface, Fig 1E) it was 12.3 ± 1.1 µM. Also, in assay [3] (SPR, P < 0.05 by ANOVA), the “affinity for hHCN4 relative to mHCN2 domains” value is recorded as “about two-fold higher”. The SPR binding response entry in [3] is on record as “robust response”.

As to `Nc1nc2c(ncn2[C@@H]2O[C@@H]3COP(=O)(O)O[C@H]4[C@@H](O)[C@H](n5cnc6c(N)ncnc65)O[C@@H]4COP(=O)(O)O[C@@H]2[C@@H]3O)c(=O)[nH]1` [cGAMP], in assay [4], the SPR binding response result is “did not detect any binding” and the “SPR binding response … of cAMP” value was “did not detect any binding”. In assay [5], the “effect … of the channel” value is given as “antagonized the effect of cyclic nucleotides”.

With `NCCCCCCNc1nc2c(N)ncnc2n1[C@@H]1O[C@@H]2COP(=O)(O)O[C@H]2[C@H]1O` [8-AHA-cAMP], the Kd in assay [12] is 10 µM; in [13], 11 µM.

In the case of `Nc1nc2c(nc(SCCNC(=S)Nc3ccc4c(c3)C(=O)OC43c4ccc(O)cc4Oc4cc(O)ccc43)n2[C@@H]2O[C@@H]3COP(=O)(O)O[C@H]3[C@H]2O)c(=O)[nH]1` [8-Fluo-cGMP], the Kd in assay [1] (8-Fluo-cGMP) is 0.7 µM.
